This experiment concerns the target T1, human Farnesoid X Receptor (FXR) ligand binding domain (GST-FXR LBD) (Homo sapiens, UniProt Q96RI1).
T1 construct: purchased Invitrogen
T1 sequence (Q96RI1 193-472 isoform Q96RI1-2): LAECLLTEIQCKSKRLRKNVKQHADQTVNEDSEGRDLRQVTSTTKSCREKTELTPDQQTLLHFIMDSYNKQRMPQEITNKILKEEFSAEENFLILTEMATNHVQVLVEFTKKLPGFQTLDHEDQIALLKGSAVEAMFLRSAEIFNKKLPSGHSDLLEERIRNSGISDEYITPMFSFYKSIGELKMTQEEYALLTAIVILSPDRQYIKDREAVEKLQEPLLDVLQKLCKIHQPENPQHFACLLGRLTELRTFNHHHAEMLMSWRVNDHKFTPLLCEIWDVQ
Kind of experiment: Human GST-FXR LBD co-activator interaction assay (HTRF). It is filed as biochemical. The following applies: GST-FXR LBD / biotin-SRC-1 peptide FRET; response relative to GW4064; read-out: FXR Co-activator interaction assay (EC50). From the text: Human GST-FXR LBD Co-activator interaction Assay. The FXR HTRF assay is a biochemical assay measuring the interaction between FXR and a coactivator protein (SRC1). The ligand-induced interaction with a coactivator protein is a critical step in transcriptional activation by FXR. Thus, this is an assay designed to measure FXR agonist activity of compounds.
The ligand-dependent interaction between GST-FXR LBD and a peptide derived from Steroid Receptor Coactivator-1 (SRC-1) was monitored by Fluorescence Resonance Energy Transfer (FRET). […] Test compounds (in DMSO solution) and detection reagents (anti-GST-Cryptate labeled antibody and Streptavidin-XL665 conjugate; CisBio) were added in assay buffer containing 50 mM KF.
A negative control (without Streptavidin-XL665) was run with each assay and represented the background fluorescence. A reference FXR agonist, GW4064, was included in each experiment as positive control. The efficacy of each test compound was compared to that of GW4064. At each concentration, the relative activity of the test compound was expressed as Response %=(Rsample−RDMSO)/(Rpositive−RDMSO), where Rsample is the HTRF response (expressed in Delta F %) for the test compound, Rpositive is the maximal response for GW4064 at saturating concentrations, and RDMSO is the response for DMSO control. The EC50 values were calculated using GraphPad Prism (GraphPad Software) using non-linear regression curve fit (log(agonist) vs. response—variable slope (four parameters)).
For the molecule `COc1cc(C(=O)O)cc2sc(N3C4CC[C@H]3CC(OCc3c(-c5ccc(F)cc5)noc3C3CC3)C4)nc12` (stereo partly shown) [Example 30-7], the EC50 was 18 nM. With `O=C(O)c1cnc(N2C3CC[C@H]2C[C@H](OCc2c(-c4ccccc4OC(F)(F)F)noc2C2CC2)C3)nc1` [Example 18-4B] the figure was 10 nM; with `NC(=O)c1ccc(N2C3CC[C@H]2CC(OCc2c(-c4ccccc4OC(F)F)noc2C2CC2)C3)c(F)c1` (stereo partly shown) [Example 27], 2 nM; with `Cc1cc(C(=O)O)cc2sc(N3C4CC[C@H]3CC(OCc3c(-c5c(F)cccc5F)noc3C3CC3)C4)nc12` (stereo partly shown) [Example 30-33], 0.7 nM. With `O=C(NCCS(=O)(=O)O)c1ccc2nc(N3C4CC[C@H]3C[C@H](OCc3c(-c5ccccc5OC(F)(F)F)noc3C3CC3)C4)sc2c1` [Example 16-1, 2-(2-(3-((5-cyclopropyl-3-(2-(trifluoromethoxy)phenyl)isoxazol-4-yl)methoxy)-8-azabicyclo[3.2.1]octan-8-yl)benzo[d]thiazole-6-carboxamido)ethanesulfonic acid] the figure was 0.6 nM; with `CC(C)(O)c1ccc2nc(N3C4CC[C@H]3CC(OCc3c(-c5ccccc5OC(F)(F)F)noc3C3CC3)C4)sc2c1` (stereo partly shown) [Example 4, 2-(2-(3-((5-cyclopropyl-3-(2-(trifluoromethoxy)phenyl)isoxazol-4-yl)methoxy)-8-azabicyclo[3.2.1]octan-8-yl)benzo[d]thiazol-6-yl)propan-2-ol], 22 nM; with `NC(=O)c1ccc(N2C3CC[C@H]2C[C@H](OCc2c(-c4ccccc4OC(F)(F)F)noc2C2CC2)C3)nc1` [Example 5-2], 3.8 nM. Take `Cc1cccc(F)c1-c1noc(C2CC2)c1CO[C@H]1C[C@H]2CC[C@@H](C1)N2c1ccc2nc(C(=O)O)cn2n1` [Example 31-6]: the EC50 was 9 nM. The same measure for `O=C(O)c1cc(Br)c2nc(N3C4CC[C@H]3CC(OCc3c(-c5ccccc5OC(F)(F)F)noc3C3CC3)C4)sc2c1` (stereo partly shown) [Example 30-40]: 0.7 nM; for `Cc1ccccc1-c1noc(C2CC2)c1COC1CC2CC[C@@H](C1)N2c1nc2c(C)cc(C(=O)O)cc2s1` (stereo partly shown) [Example 30-36]: 1.1 nM. Consider `O=C(O)c1cn2nc(N3[C@@H]4CC[C@H]3C[C@@H](OCc3c(-c5c(F)cccc5F)noc3C3CC3)C4)ccc2n1` [Example 31-5], for which the EC50 worked out at 10 nM. Turning to `O=C(O)c1cnc(N2C3CC[C@H]2CC(OCc2c(-c4c(F)cccc4F)noc2C2CC2)C3)nc1` (stereo partly shown) [Example 22-14B], the concentration giving a half-maximal response (EC50) stood at 13 nM. The same measure for `CCOC(=O)c1ccc2nc(N3C4CC[C@H]3CC(OCc3c(-c5ccccc5OC(F)(F)F)noc3C3CC3)C4)sc2c1` (stereo partly shown) [Example 3A, ethyl 2-(3-((5-cyclopropyl-3-(2-(trifluoromethoxy)phenyl)isoxazol-4-yl)methoxy)-8-azabicyclo[3.2.1]octan-8-yl)benzo[d]thiazole-6-carboxylate]: 20 nM; for `COC(=O)c1cnc(N2C3CC[C@H]2CC(OCc2c(-c4ccccc4C(F)(F)F)noc2C2CC2)C3)cn1` (stereo partly shown) [Example 21-3A]: 180 nM; for `COc1cc(C(=O)O)cc2sc(N3[C@@H]4CC[C@H]3C[C@@H](OCc3c(-c5ccccc5F)noc3C3CC3)C4)nc12` [Example 30-67]: 0.5 nM. With `O=C(O)c1ccc(N2[C@@H]3CC[C@H]2C[C@@H](OCc2c(-c4c(F)cccc4F)noc2C2CC2)C3)nc1` [Example 22-13B] the figure was 9 nM; with `O=C(O)CNC(=O)c1cc(F)c2nc(N3C4CC[C@H]3C[C@H](OCc3c(-c5ccccc5OC(F)(F)F)noc3C3CC3)C4)sc2c1` [Example 15-2], 0.5 nM; with `O=C(O)c1cncc(N2C3CC[C@H]2C[C@H](OCc2c(-c4ccccc4OC(F)(F)F)noc2C2CC2)C3)n1` [Example 19-5B], 9 nM. With `O=C(O)c1cnc(N2C3CC[C@H]2CC(OCc2c(-c4ccccc4OC(F)F)noc2C2CC2)C3)nc1` (stereo partly shown) [Example 22-10B] the figure was 8 nM.

On to `Cc1cc(C(=O)O)nc(N2[C@@H]3CC[C@H]2C[C@@H](OCc2c(-c4c(C)cccc4F)noc2C2CC2)C3)n1` [Example 30-13], for which the EC50 worked out at 6 nM. The same measure for `O=C(O)c1cc2nc(N3C4CC[C@H]3CC(OCc3c(-c5ccccc5OC(F)(F)F)noc3C3CC3)C4)ccn2n1` (stereo partly shown) [Example 31-3]: 2 nM. `O=C(O)c1ccc(N2C3CC[C@H]2CC(OCc2c(-c4ccccc4OC(F)F)noc2C2CC2)C3)c(F)c1` (stereo partly shown) [Example 25-6B]: the EC50 is 3 nM.

As for `COC(=O)c1cnc(N2C3CC[C@H]2CC(OCc2c(-c4c(F)cccc4F)noc2C2CC2)C3)cn1` (stereo partly shown) [Example 22-15A], the EC50 worked out at 130 nM. The same measure for `O=C(O)c1nsc2cc(N3C4CC[C@H]3CC(OCc3c(-c5ccccc5OC(F)(F)F)noc3C3CC3)C4)ccc12` (stereo partly shown) [Example 28-1B, 6-(3-((5-Cyclopropyl-3-(2-(trifluoromethoxy)phenyl)isoxazol-4-yl)methoxy)-8-azabicyclo[3.2.1]octan-8-yl)benzo[d]isothiazole-3-carboxylic acid]: 0.6 nM.

Consider `O=C(O)c1cccc(N2C3CC[C@H]2CC(OCc2c(-c4ccccc4C(F)(F)F)noc2C2CC2)C3)n1` (stereo partly shown) [Example 21-6B], for which the EC50 was found to be 16 nM. The same measure for `Cc1nc(N2C3CC[C@H]2CC(OCc2c(-c4ccccc4OC(F)(F)F)noc2C2CC2)C3)ccc1C(=O)O` (stereo partly shown) [Example 30-44]: 8 nM; for `O=C(O)c1cc(F)c2nc(N3C4CC[C@H]3CC(OCc3c(C5C6CCCC65)noc3C3CC3)C4)sc2c1` (stereo partly shown) [Example 29-1]: 14 nM.

Regarding `Cc1nc(N2[C@@H]3CC[C@H]2C[C@@H](OCc2c(-c4ccccc4F)noc2C2CC2)C3)ccc1C(=O)O` [Example 30-48], the EC50 is 34 nM. With `O=C(O)c1cnc2cc(N3C4CC[C@H]3CC(OCc3c(-c5ccccc5OC(F)(F)F)noc3C3CC3)C4)ccn12` (stereo in doubt) [Example 32-1, 7-(3-((5-cyclopropyl-3-(2-(trifluoromethoxy)phenyl)isoxazol-4-yl)methoxy)-8-azabicyclo[3.2.1]octan-8-yl)imidazo[1,2-a]pyridine-3-carboxylic acid] the figure was 3 nM. With `COC(=O)c1cc(C)nc(N2C3CC[C@H]2CC(OCc2c(-c4ccccc4OC(F)F)noc2C2CC2)C3)n1` (stereo partly shown) [Example 22-5] the figure was 27 nM; with `O=C(O)c1ccc(N2[C@@H]3CC[C@H]2C[C@@H](OCc2c(-c4ccccc4F)noc2C2CC2)C3)nc1` [Example 30-69], 21 nM. The same measure for `O=C(O)c1cc2cc(N3C4CC[C@H]3CC(OCc3c(-c5ccccc5OC(F)(F)F)noc3C3CC3)C4)ccc2s1` (stereo partly shown) [Example 28-13]: 7.4 nM; for `COc1cc(C(=O)O)cc2sc(N3[C@@H]4CC[C@H]3C[C@@H](OCc3c(-c5cccc(F)c5)noc3C3CC3)C4)nc12` [Example 30-8]: 21 nM; for `COC(=O)c1cnc(N2[C@@H]3CC[C@H]2C[C@@H](OCc2c(-c4c(F)cccc4F)noc2C2CC2)C3)cc1C(F)(F)F` [Example 22-16A]: 160 nM.

In the case of `O=C(O)c1ccc(N2C3CC[C@H]2CC(OCc2c(-c4c(Cl)cccc4Cl)noc2C2CC2)C3)nc1` (stereo partly shown) [Example 30-72], the 50% effective concentration (EC50) is 1.4 nM. The same measure for `Cc1ccccc1-c1noc(C2CC2)c1CO[C@H]1C[C@H]2CC[C@@H](C1)N2c1ccc(C(=O)O)cn1` [Example 30-2]: 10 nM; for `O=C(O)c1cc2cc(N3C4CC[C@H]3CC(OCc3c(-c5ccccc5OC(F)(F)F)noc3C3CC3)C4)ccc2o1` (stereo partly shown) [Example 28-14]: 4.6 nM.

These data come from US9150568B2, “Compositions and methods for modulating FXR” (NOVARTIS AG, priority 2010, dated 2015).
